Laboratory results from US10940139B2, “Compounds that interact with the Ras superfamily for the treatment of cancers, inflammatory diseases, rasopathies, and fibrotic disease” (Shy Therapeutics LLC, priority 2017, dated 2021).

How the values were obtained:
Assay in all cases: Ras GTP binding domain inhibition assay (labeled GTP)
[1] = biological target: KRas G12D/Q61H double mutant (Homo sapiens (Human), UniProt P01116, G12D/Q61H); conditions: for inhibition at 20 µM: 20 μM compound, read-out: % Inhibition at 20 μM KRas G12D Q61H; for IC50: serial dilution, read-out: KRas G12D Q61H (classes E-H, IC50)
Chain of KRas G12D/Q61H double mutant (P01116-2 other isoform, or with tags, fused parts or gaps G12D/Q61H): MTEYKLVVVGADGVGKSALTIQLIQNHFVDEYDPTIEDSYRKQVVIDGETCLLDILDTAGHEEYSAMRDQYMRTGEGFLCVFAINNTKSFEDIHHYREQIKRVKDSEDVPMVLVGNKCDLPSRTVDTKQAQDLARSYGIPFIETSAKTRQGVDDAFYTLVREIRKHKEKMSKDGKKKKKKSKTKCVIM
How it was run: (§1)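 Fluorescence read-out of Cy3-/Cy5-GTP remaining bound to nickel-immobilized His-KRas after washes. Protein was coated overnight at 4° C, then exposed to compound for 3 h at room temperature before a 45 min labeled-GTP incubation.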

[2] = biological target: KRas G12C/Q61H double mutant (Homo sapiens (Human), UniProt P01116, G12C/Q61H); conditions: 20 μM compound; read-out: % Inhibition at 20 μM KRas G12C Q61H
Chain of KRas G12C/Q61H double mutant (P01116-2 other isoform, or with tags, fused parts or gaps G12C/Q61H): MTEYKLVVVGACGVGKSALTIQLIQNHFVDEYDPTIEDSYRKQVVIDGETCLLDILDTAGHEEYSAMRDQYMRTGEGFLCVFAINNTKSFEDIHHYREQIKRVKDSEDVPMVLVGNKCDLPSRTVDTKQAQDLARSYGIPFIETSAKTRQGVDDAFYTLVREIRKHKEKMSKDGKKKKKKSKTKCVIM
How it was run: as §1

KRas Q61H mutant = KRas Q61H mutant (Homo sapiens (Human), UniProt P01116, Q61H); conditions: 20 μM compound; read-out: % Inhibition at 20 μM KRas Q61H
Chain of KRas Q61H mutant (P01116-2 other isoform, or with tags, fused parts or gaps Q61H): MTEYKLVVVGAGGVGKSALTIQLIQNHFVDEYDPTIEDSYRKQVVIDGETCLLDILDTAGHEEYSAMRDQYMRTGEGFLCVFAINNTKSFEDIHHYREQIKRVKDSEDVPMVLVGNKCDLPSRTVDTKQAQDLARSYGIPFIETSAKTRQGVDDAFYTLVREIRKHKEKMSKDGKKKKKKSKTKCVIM
How it was run: as §1

Row | inhibition at 20 µM [1] [%] | inhibition at 20 µM [2] [%] | inhibition at 20 µM (KRas Q61H mutant) [%] | Compound | IC50 [1] [µM]
1 | 1 to 25 | 25 to 50 | 51 to 75 | O=C(c1csc2c(O)nc(-c3ccccn3)nc12)N1CCOC(CN2CCOCC2)C1 (stereo not shown) [drawing 2805] | 
2 | 1 to 25 | 1 to 25 | 1 to 25 | COCCCCNC(=O)c1csc2nc(-c3ccccn3)nc(N3CCS(=O)(=O)CC3)c12 [drawing 2826] | 
3 | 51 to 75 | 51 to 75 | 51 to 75 | COc1cccc(CC2CN(C(=O)c3csc4c(O)nc(-c5ccccn5)nc34)CCN2)c1 (stereo not shown) [drawing 2830] | 
4 | 25 to 50 | 25 to 50 | 25 to 50 | COc1ccnc(-c2nc(O)c3c(C(F)(F)F)csc3n2)c1 [drawing 2833] | 
5 | 1 to 25 | 1 to 25 | 1 to 25 | Nc1nc(-c2ccccn2)nc2c(-c3ccccc3Cl)csc12 [drawing 2835] | 
6 | 51 to 75 | 51 to 75 | 76 to 100 | O=C(c1cc2nc(-c3ccccn3)nc(O)c2s1)N1CCOC(c2ccccc2)C1 (stereo not shown) [drawing 2842] | 
7 | 25 to 50 | 51 to 75 | 51 to 75 | O=C(NCCc1cccnc1)c1cc2nc(-c3ccccn3)nc(O)c2s1 [drawing 2843] | 
8 | 51 to 75 | 51 to 75 | 51 to 75 | Cc1ccc(OC2CCCC2)c(-c2csc3c(O)nc(-c4ccccn4)nc23)c1 [drawing 2844] | 
9 | 51 to 75 | 51 to 75 | 51 to 75 | CC(C)(C)c1ccc(-c2csc3c(O)nc(-c4ccccn4)nc23)cc1 [drawing 2847] | 
10 | 25 to 50 | 25 to 50 | 25 to 50 | COc1ccc(CCNC(=O)c2csc3nc(-c4ccccn4)nc(N4CCS(=O)(=O)CC4)c23)cn1 [drawing 2853] | 
11 | 25 to 50 | 1 to 25 | 25 to 50 | Oc1nc(-c2ccccn2)nc2c(-c3ccc(OC4CCOC4)cc3)csc12 (stereo not shown) [drawing 2862] | 
12 | 25 to 50 | 25 to 50 | 25 to 50 | Oc1nc(-c2ccccn2)nc2c(-c3ccc(OC4CCCC4)cc3)csc12 [drawing 2863] | 
13 | 51 to 75 | 51 to 75 | 51 to 75 | Oc1nc(-c2ccccn2)nc2c(-c3ccc(C4CCC4)cc3)csc12 [drawing 2865] | 
14 | 51 to 75 | 51 to 75 | 51 to 75 | Oc1nc(-c2ccccn2)nc2c(-c3ccccc3OC3CCCCC3)csc12 [drawing 2866] | 
15 | 25 to 50 | 25 to 50 | 25 to 50 | Oc1nc(-c2ccccn2)nc2c(-c3ccc(OC4CCOCC4)cc3)csc12 [drawing 2867] | 
16 | 25 to 50 | 1 to 25 | 1 to 25 | COc1cc(C)c(-c2csc3c(O)nc(-c4ccccn4)nc23)cc1C [drawing 2869] | 
17 | 25 to 50 | 25 to 50 | 25 to 50 | Oc1nc(-c2ccccn2)nc2c(-c3ccc(OC4CCCCC4)cc3)csc12 [drawing 2887] | 
18 | 25 to 50 | 1 to 25 | 25 to 50 | Nc1nc(-c2ccccn2)nc2c(Br)csc12 [drawing 2892] | 
19 | 25 to 50 | 25 to 50 | 51 to 75 | Nc1nc(-c2ccccn2)nc2scc(Br)c12 [drawing 2894] | 
20 | 25 to 50 | 25 to 50 | 25 to 50 | COC(=O)c1csc2nc(-c3ccccn3)nc(N)c12 [drawing 2895] | 
21 | 1 to 25 | 25 to 50 | 25 to 50 | COc1nccc(CCNC(=O)c2csc3nc(-c4ccccn4)nc(N4CCOCC4)c23)n1 [drawing 2897] | 
22 | 1 to 25 | 51 to 75 | 51 to 75 | O=C(NCCc1ccnc(O)n1)c1csc2nc(-c3ccccn3)nc(N3CCOCC3)c12 [drawing 2898] | 
23 | 25 to 50 | 51 to 75 | 51 to 75 | Nc1nc(-c2ccccn2)nc2scc(C(=O)O)c12 [drawing 2906] | 

Further lines, the molecule ahead of its results:

Row | Compound | inhibition at 20 µM [1] [%] | inhibition at 20 µM [2] [%] | inhibition at 20 µM (KRas Q61H mutant) [%] | IC50 [1] [µM]
24 | O=C(c1csc2c(O)nc(-c3ccccn3)nc12)N1CCN(c2ccc(O)c(Cl)c2)CC1 [drawing 2803] | 51 to 75 | 51 to 75 | 51 to 75 | 11 to 30
25 | CC(c1ccccc1)N1CCN(C(=O)c2csc3c(O)nc(-c4ccccn4)nc23)CC1 (stereo not shown) [drawing 2804] | 51 to 75 | 51 to 75 | 76 to 100 | 11 to 30
26 | O=C(c1csc2c(O)nc(-c3ccccn3)nc12)N1CCNC(c2ccccc2Cl)C1 (stereo not shown) [drawing 2806] | 25 to 50 | 51 to 75 | 76 to 100 | 
27 | O=C(c1csc2c(O)nc(-c3ccccn3)nc12)N1CCNC(c2ccc(F)cc2)C1 (stereo not shown) [drawing 2807] | 1 to 25 | 76 to 100 | 76 to 100 | 
28 | O=C(c1csc2c(O)nc(-c3ccccn3)nc12)N1CCNC(Cc2ccc(F)cc2)C1 (stereo not shown) [drawing 2831] | 51 to 75 | 51 to 75 | 51 to 75 | 
29 | O=C(c1csc2c(O)nc(-c3ccccn3)nc12)N1CCNC(Cc2cccc(F)c2)C1 (stereo not shown) [drawing 2832] | 51 to 75 | 51 to 75 | 51 to 75 | 
30 | Cc1sc2c(N)nc(-c3ccccn3)nc2c1-c1ccccc1 [drawing 2837] | 25 to 50 | 1 to 25 | 1 to 25 | 
31 | O=C(NCCc1cnc(O)nc1)c1csc2nc(-c3ccccn3)nc(N3CCS(=O)(=O)CC3)c12 [drawing 2854] | 25 to 50 | 1 to 25 | 25 to 50 | 
32 | N#Cc1ccc2c(c1)CCCC2C(=O)Nc1ccnc(-c2ccccn2)n1 (stereo not shown) [drawing 2855] | 51 to 75 | 51 to 75 | 51 to 75 | 
33 | Cc1cc(OC(F)F)ccc1-c1csc2c(O)nc(-c3ccccn3)nc12 [drawing 2878] | 25 to 50 | 25 to 50 | 25 to 50 | 
34 | Oc1nc(-c2ccccn2)nc2c(-c3ccc(CN4CCOCC4)cc3)csc12 [drawing 2882] | 25 to 50 | 25 to 50 | 25 to 50 | 
35 | Cc1sc2c(N)nc(-c3ccccn3)nc2c1Br [drawing 2893] | 25 to 50 | 25 to 50 | 1 to 25 | 
36 | CCn1nc(C)cc1-c1csc2c(O)nc(-c3ccccn3)nc12 [drawing 2903] | 51 to 75 | 51 to 75 | 51 to 75 | 11 to 30
37 | Oc1nc(-c2ccccn2)nc2c(-c3ccnn3-c3ccccn3)csc12 [drawing 2904] | 1 to 25 | 25 to 50 | 25 to 50 | 
38 | COC(=O)c1cc2nc(-c3ccccn3)nc(O)c2s1 [drawing 2907] | 51 to 75 | 51 to 75 | 51 to 75 | > 30
